pIC50: −log10 of the molar value. Like-named read-outs stand apart in the source and are kept apart here. Positions of bridges follow the written chain, without caps; N, C: chain ends. Non-standard residues stand in square brackets, D forms with d. Residues, ends and D or L forms follow the SMILES beside them. Nva = CCC[C@H](N)C(=O)O; Sar = CNCC(=O)O
Assays:
hNav1.5 = hNav1.5 (Homo sapiens, UniProt Q14524); assay: cell-based
hNav1.7 = hNav1.7 (Homo sapiens, UniProt Q15858); assay: cell-based
Chain of hNav1.7 (Q15858 whole entry, looked up): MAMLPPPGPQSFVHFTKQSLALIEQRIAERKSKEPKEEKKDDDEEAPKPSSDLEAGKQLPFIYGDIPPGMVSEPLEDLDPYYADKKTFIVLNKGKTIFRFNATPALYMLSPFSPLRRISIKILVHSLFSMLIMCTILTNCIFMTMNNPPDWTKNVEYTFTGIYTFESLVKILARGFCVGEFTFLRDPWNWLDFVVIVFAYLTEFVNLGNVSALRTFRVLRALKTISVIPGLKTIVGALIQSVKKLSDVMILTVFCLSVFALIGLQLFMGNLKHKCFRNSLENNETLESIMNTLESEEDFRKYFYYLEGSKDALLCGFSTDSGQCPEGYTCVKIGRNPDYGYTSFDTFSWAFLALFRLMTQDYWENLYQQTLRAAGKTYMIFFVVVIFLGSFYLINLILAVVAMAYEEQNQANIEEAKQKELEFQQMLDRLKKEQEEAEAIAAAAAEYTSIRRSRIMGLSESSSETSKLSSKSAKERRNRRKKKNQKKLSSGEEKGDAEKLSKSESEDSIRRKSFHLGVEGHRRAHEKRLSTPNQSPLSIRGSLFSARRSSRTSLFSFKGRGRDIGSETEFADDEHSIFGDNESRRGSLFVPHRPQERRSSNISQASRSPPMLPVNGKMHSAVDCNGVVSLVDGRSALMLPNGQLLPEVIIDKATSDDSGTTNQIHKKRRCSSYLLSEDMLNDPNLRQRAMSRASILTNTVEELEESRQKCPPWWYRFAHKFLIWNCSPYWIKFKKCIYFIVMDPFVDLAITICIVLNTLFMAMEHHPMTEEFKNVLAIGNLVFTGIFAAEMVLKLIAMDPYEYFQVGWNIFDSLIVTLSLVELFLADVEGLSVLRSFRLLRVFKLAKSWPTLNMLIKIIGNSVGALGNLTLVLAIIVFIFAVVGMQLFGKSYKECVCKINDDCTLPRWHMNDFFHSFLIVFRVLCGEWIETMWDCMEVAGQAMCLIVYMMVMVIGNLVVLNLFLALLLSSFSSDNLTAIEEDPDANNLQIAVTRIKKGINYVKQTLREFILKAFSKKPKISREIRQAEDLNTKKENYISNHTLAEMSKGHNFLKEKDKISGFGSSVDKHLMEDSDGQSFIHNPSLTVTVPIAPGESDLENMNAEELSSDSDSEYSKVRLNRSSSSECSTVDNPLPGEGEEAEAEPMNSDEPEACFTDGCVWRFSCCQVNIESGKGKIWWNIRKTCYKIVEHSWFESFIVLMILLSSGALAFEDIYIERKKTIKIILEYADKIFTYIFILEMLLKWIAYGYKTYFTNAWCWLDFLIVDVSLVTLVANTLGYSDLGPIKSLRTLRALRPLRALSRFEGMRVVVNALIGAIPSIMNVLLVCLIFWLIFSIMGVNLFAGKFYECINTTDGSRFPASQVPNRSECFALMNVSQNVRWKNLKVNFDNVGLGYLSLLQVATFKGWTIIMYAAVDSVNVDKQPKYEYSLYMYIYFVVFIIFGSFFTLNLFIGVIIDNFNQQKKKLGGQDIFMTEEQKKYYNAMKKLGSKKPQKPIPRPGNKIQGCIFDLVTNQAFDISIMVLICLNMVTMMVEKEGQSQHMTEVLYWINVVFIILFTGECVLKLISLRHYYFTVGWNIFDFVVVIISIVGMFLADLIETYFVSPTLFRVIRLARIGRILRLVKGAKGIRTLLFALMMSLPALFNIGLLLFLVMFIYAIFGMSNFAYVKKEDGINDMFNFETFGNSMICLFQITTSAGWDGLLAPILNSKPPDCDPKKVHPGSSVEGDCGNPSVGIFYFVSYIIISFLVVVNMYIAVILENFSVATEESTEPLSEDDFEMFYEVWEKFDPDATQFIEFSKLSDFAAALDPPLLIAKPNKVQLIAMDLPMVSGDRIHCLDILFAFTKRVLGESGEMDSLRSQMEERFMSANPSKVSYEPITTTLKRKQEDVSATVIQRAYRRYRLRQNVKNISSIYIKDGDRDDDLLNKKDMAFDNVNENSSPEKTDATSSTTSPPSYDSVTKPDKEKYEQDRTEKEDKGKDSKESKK

Chain of hNav1.5 (Q14524 whole entry, looked up): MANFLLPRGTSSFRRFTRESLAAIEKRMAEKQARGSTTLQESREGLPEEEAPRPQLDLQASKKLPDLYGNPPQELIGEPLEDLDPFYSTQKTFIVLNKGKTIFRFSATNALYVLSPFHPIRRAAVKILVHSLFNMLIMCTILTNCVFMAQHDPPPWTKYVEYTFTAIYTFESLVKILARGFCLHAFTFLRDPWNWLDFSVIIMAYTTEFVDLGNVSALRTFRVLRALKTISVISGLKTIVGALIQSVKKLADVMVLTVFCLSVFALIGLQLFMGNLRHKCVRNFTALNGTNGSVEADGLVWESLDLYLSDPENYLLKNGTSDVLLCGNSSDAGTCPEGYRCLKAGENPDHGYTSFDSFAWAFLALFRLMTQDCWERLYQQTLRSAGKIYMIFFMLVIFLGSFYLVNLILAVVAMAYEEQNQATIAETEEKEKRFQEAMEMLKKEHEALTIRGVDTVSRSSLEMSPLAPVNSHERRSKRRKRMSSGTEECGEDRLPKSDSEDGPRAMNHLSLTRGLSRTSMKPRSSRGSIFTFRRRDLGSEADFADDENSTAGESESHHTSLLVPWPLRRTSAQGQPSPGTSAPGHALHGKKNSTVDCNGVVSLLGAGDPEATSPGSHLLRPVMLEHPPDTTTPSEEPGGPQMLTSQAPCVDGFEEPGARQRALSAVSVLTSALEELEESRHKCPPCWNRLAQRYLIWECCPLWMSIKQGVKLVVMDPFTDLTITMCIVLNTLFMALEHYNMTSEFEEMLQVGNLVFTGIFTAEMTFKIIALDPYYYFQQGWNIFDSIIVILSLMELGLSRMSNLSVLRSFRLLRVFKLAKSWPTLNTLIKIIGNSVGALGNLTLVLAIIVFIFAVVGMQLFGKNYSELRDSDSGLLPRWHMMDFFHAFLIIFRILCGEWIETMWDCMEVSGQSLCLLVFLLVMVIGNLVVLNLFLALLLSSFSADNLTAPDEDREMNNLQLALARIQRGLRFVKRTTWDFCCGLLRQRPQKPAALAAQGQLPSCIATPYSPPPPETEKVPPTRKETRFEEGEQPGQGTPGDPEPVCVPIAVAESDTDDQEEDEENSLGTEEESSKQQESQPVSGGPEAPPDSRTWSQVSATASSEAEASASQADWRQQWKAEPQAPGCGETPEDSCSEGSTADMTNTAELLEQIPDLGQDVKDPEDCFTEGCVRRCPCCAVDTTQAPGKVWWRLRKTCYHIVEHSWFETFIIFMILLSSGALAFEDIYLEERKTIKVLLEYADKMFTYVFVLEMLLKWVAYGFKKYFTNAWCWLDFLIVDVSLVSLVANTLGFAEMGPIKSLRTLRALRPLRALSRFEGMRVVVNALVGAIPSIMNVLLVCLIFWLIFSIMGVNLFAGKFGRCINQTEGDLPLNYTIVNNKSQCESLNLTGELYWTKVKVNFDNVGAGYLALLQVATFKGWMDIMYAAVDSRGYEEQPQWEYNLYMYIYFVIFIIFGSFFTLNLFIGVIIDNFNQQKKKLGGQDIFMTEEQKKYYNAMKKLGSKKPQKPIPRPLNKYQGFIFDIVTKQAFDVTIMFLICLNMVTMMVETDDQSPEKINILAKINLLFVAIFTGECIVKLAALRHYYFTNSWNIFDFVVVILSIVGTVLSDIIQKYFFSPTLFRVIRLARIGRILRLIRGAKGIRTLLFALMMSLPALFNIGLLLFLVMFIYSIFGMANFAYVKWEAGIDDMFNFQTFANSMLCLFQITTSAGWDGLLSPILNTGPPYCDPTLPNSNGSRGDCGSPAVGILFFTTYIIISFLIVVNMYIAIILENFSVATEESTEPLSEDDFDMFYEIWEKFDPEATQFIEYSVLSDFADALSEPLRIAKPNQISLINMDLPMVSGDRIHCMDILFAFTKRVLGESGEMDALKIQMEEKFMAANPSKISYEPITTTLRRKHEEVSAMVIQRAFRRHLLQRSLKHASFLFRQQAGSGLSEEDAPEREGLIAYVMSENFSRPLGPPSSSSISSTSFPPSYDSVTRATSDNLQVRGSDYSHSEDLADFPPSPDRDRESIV

Compound | pIC50 (hNav1.5) | pIC50 (hNav1.7; Nav1.7 Use IC50) | pIC50 (hNav1.7; read-out: Nav1.7 Use IC50)
CC[C@H](C)[C@@H]1NC(=O)[C@@H]2CSSC[C@@H]3NC(=O)[C@H](C(C)C)NC(=O)[C@H](CC(C)C)NC(=O)[C@H](CC(N)=O)NC(=O)[C@@H]4CCCN4C(=O)[C@H](CCCNC(=N)N)NC(=O)[C@H](CSSC[C@H](NC(=O)[C@@H](N)CC(=O)O)C(=O)N[C@@H](CC(C)C)C(=O)NCC(=O)N(C)[C@@H](Cc4ccccc4)C(=O)N[C@@H](CCSC)C(=O)N[C@@H](CCCNC(=N)N)C(=O)N[C@@H](CCCCN)C(=O)N2)NC(=O)[C@H](CSSC[C@@H](C(=O)N[C@@H](CCCCN)C(=O)N[C@@H](Cc2ccc(O)cc2)C(=O)N[C@H](C(=O)N[C@@H](Cc2ccccc2)C(N)=O)C(C)C)NC(=O)[C@H](Cc2c[nH]c4ccccc24)NC(=O)[C@H](CCCCN)NC(=O)[C@H](Cc2c[nH]cn2)NC(=O)[C@H]([C@@H](C)O)NC(=O)[C@H](CCCNC(=N)N)NC(=O)[C@H](CO)NC3=O)NC(=O)[C@H](CCCCN)NC(=O)[C@H](CC(=O)O)NC(=O)[C@H](CC(N)=O)NC(=O)[C@H](CC(=O)O)NC(=O)[C@@H]2CCCN2C1=O [[NMePhe5]GpTx-1(1-34)] | < 5.00 | 7.74 | 
CC[C@H](C)[C@@H]1NC(=O)[C@@H]2CSSC[C@@H]3NC(=O)[C@H](C(C)C)NC(=O)[C@H](CC(C)C)NC(=O)[C@H](CC(N)=O)NC(=O)[C@@H]4CCCN4C(=O)[C@H](CCCNC(=N)N)NC(=O)[C@H](CSSC[C@H](NC(=O)[C@@H](N)CC(=O)O)C(=O)N[C@@H](CC(C)C)C(=O)NCC(=O)N(C)[C@@H](C(C)C)C(=O)N[C@@H](CC(C)C)C(=O)N[C@@H](CCCNC(=N)N)C(=O)N[C@@H](CCCCN)C(=O)N2)NC(=O)[C@H](CSSC[C@@H](C(=O)N[C@@H](CCCCN)C(=O)N[C@@H](Cc2ccc(O)cc2)C(=O)N[C@H](C(=O)N[C@@H](Cc2ccccc2)C(N)=O)C(C)C)NC(=O)[C@H](Cc2c[nH]c4ccccc24)NC(=O)[C@H](CCCCN)NC(=O)[C@H](Cc2c[nH]cn2)NC(=O)[C@H]([C@@H](C)O)NC(=O)[C@H](CCCNC(=N)N)NC(=O)[C@H](CO)NC3=O)NC(=O)[C@H](CCCCN)NC(=O)[C@H](CC(=O)O)NC(=O)[C@H](CC(N)=O)NC(=O)[C@H](CC(=O)O)NC(=O)[C@@H]2CCCN2C1=O [[NMeVal5;Leu6]GpTx-1(1-34)] | < 5.00 | 7.30 | 
CCC[C@@H]1NC(=O)CNC(=O)[C@H](CC(C)C)NC(=O)[C@@H](NC(=O)[C@@H](N)CC(=O)O)CSSC[C@@H]2NC(=O)[C@@H]3CSSC[C@@H](C(=O)N[C@@H](CCCCN)C(=O)N[C@@H](Cc4ccc(O)cc4)C(=O)N[C@H](C(=O)N[C@@H](Cc4ccccc4)C(N)=O)C(C)C)NC(=O)[C@H](Cc4c[nH]c5ccccc45)NC(=O)[C@H](CCC(=O)O)NC(=O)[C@H](Cc4c[nH]cn4)NC(=O)[C@H]([C@@H](C)O)NC(=O)[C@H](CCCNC(=N)N)NC(=O)[C@H](CO)NC(=O)[C@H](CSSC[C@H](NC(=O)[C@H](CCCCN)NC(=O)[C@H](CCCNC(=N)N)NC(=O)[C@H](CCSC)NC1=O)C(=O)N[C@@H]([C@@H](C)CC)C(=O)N1CCC[C@H]1C(=O)N[C@@H](CC(=O)O)C(=O)N[C@@H](CC(N)=O)C(=O)N[C@@H](CC(=O)O)C(=O)N[C@@H](CCCCN)C(=O)N3)NC(=O)[C@H](C(C)C)NC(=O)[C@H](CC(C)C)NC(=O)[C@H](CC(N)=O)NC(=O)[C@@H]1CCCN1C(=O)[C@H](CCCNC(=N)N)NC2=O [[Nva5;Glu28]GpTx-1(1-34)] (H-DCLG[Nva]MRKCIPDNDKCCRPNLVCSRTHEWCKYVF-NH2; disulfide 2-17, 9-23, 16-30) | < 5.00 | 7.25 | 
CCC[C@@H]1NC(=O)CNC(=O)[C@H](CC(C)C)NC(=O)[C@@H](NC(=O)[C@@H](N)CC(=O)O)CSSC[C@@H]2NC(=O)[C@@H]3CSSC[C@@H](C(=O)N[C@@H](CCCCN)C(=O)N[C@@H](Cc4ccc(O)cc4)C(=O)N[C@H](C(=O)N[C@@H](Cc4ccccc4)C(N)=O)C(C)C)NC(=O)[C@H](Cc4c[nH]c5ccccc45)NC(=O)[C@H](CCC(=O)O)NC(=O)[C@H](Cc4c[nH]cn4)NC(=O)[C@H]([C@@H](C)O)NC(=O)[C@H](CCCNC(=N)N)NC(=O)[C@H](CO)NC(=O)[C@H](CSSC[C@H](NC(=O)[C@H](CCCCN)NC(=O)[C@H](CCCNC(=N)N)NC(=O)[C@H](CC(C)C)NC1=O)C(=O)N[C@@H]([C@@H](C)CC)C(=O)N1CCC[C@H]1C(=O)N[C@@H](CC(=O)O)C(=O)N[C@@H](CC(N)=O)C(=O)N[C@@H](CC(=O)O)C(=O)N[C@@H](CCCCN)C(=O)N3)NC(=O)[C@H](C(C)C)NC(=O)[C@H](CC(C)C)NC(=O)[C@H](CC(N)=O)NC(=O)[C@@H]1CCCN1C(=O)[C@H](CCCNC(=N)N)NC2=O [[Nva5;Leu6;Glu28]GpTx-1(1-34)] (H-DCLG[Nva]LRKCIPDNDKCCRPNLVCSRTHEWCKYVF-NH2; disulfide 2-17, 9-23, 16-30) | < 5.00 | 7.38 | 
CCC[C@@H]1NC(=O)CNC(=O)[C@H](CC(C)C)NC(=O)[C@@H](NC(=O)[C@@H](N)CC(=O)O)CSSC[C@@H]2NC(=O)[C@@H]3CSSC[C@@H](C(=O)N[C@@H](CCCCN)C(=O)N[C@@H](Cc4ccc(O)cc4)C(=O)N[C@H](C(=O)N[C@@H](Cc4ccccc4)C(N)=O)C(C)C)NC(=O)[C@H](Cc4c[nH]c5ccccc45)NC(=O)[C@H](CCCCN)NC(=O)[C@H](Cc4c[nH]cn4)NC(=O)[C@H]([C@@H](C)O)NC(=O)[C@H](CCCNC(=N)N)NC(=O)[C@H](CO)NC(=O)[C@H](CSSC[C@H](NC(=O)[C@H](CCCCN)NC(=O)[C@H](CCCNC(=N)N)NC(=O)[C@H](CC(C)C)NC1=O)C(=O)N[C@@H]([C@@H](C)CC)C(=O)N1CCC[C@H]1C(=O)N[C@@H](CC(=O)O)C(=O)N[C@@H](CC(N)=O)C(=O)N[C@@H](CC(=O)O)C(=O)N[C@@H](CCCCN)C(=O)N3)NC(=O)[C@H](C(C)C)NC(=O)[C@H](CC(C)C)NC(=O)[C@H](CC(N)=O)NC(=O)[C@@H]1CCCN1C(=O)[C@H](CCCNC(=N)N)NC2=O [[Nva5;Leu6]GpTx-1(1-34)] | < 5.00 | 7.08 | 
CC[C@H](C)[C@@H]1NC(=O)[C@@H]2CSSC[C@@H]3NC(=O)[C@H](C(C)C)NC(=O)[C@H](CC(C)C)NC(=O)[C@H](CC(N)=O)NC(=O)[C@@H]4CCCN4C(=O)[C@H](CCCNC(=NC)NC)NC(=O)[C@H](CSSC[C@H](NC(=O)[C@@H](N)CC(=O)O)C(=O)N[C@@H](CC(C)C)C(=O)NCC(=O)N[C@@H](Cc4ccccc4)C(=O)N[C@@H](CCSC)C(=O)N[C@@H](CCCNC(=N)N)C(=O)N[C@@H](CCCCN)C(=O)N2)NC(=O)[C@H](CSSC[C@@H](C(=O)N[C@@H](CCCCN)C(=O)N[C@@H](Cc2ccc(O)cc2)C(=O)N[C@H](C(=O)N[C@@H](Cc2ccccc2)C(N)=O)C(C)C)NC(=O)[C@H](Cc2c[nH]c4ccccc24)NC(=O)[C@H](CCCCN)NC(=O)[C@H](Cc2c[nH]cn2)NC(=O)[C@H]([C@@H](C)O)NC(=O)[C@H](CCCNC(=N)N)NC(=O)[C@H](CO)NC3=O)NC(=O)[C@H](CCCCN)NC(=O)[C@H](CC(=O)O)NC(=O)[C@H](CC(N)=O)NC(=O)[C@H](CC(=O)O)NC(=O)[C@@H]2CCCN2C1=O [[SDMA18]GpTx-1(1-34)] | 5.00 |  | 8.22
CC[C@H](C)[C@@H]1NC(=O)[C@@H]2CSSC[C@@H]3NC(=O)[C@H](C(C)C)NC(=O)[C@H](CC(C)C)NC(=O)[C@H](CC(N)=O)NC(=O)[C@@H]4CCCN4C(=O)[C@H](CCCNC(=N)N)NC(=O)[C@H](CSSC[C@H](NC(=O)[C@@H](N)CC(=O)O)C(=O)N[C@@H](CC(C)C)C(=O)NCC(=O)N(C)CC(=O)N[C@@H](Cc4ccccc4)C(=O)N[C@@H](CCCNC(=N)N)C(=O)N[C@@H](CCCCN)C(=O)N2)NC(=O)[C@H](CSSC[C@@H](C(=O)N[C@@H](CCCCN)C(=O)N[C@@H](Cc2ccc(O)cc2)C(=O)N[C@H](C(=O)N[C@@H](Cc2ccccc2)C(N)=O)C(C)C)NC(=O)[C@H](Cc2c[nH]c4ccccc24)NC(=O)[C@H](CCCCN)NC(=O)[C@H](Cc2c[nH]cn2)NC(=O)[C@H]([C@@H](C)O)NC(=O)[C@H](CCCNC(=N)N)NC(=O)[C@H](CO)NC3=O)NC(=O)[C@H](CCCCN)NC(=O)[C@H](CC(=O)O)NC(=O)[C@H](CC(N)=O)NC(=O)[C@H](CC(=O)O)NC(=O)[C@@H]2CCCN2C1=O [[Sar5;Phe6]GpTx-1(1-34)] (H-DCLG[Sar]FRKCIPDNDKCCRPNLVCSRTHKWCKYVF-NH2; disulfide 2-17, 9-23, 16-30) | < 5.00 | 7.60 | 
CC[C@H](C)[C@@H]1NC(=O)[C@@H]2CSSC[C@@H]3NC(=O)[C@H](C(C)C)NC(=O)[C@H](CC(C)C)NC(=O)[C@H](CC(N)=O)NC(=O)[C@@H]4CCCN4C(=O)[C@H](CCCNC(=N)N)NC(=O)[C@H](CSSC[C@H](NC(=O)[C@@H](N)CC(=O)O)C(=O)N[C@@H](CC(C)C)C(=O)NCC(=O)N[C@@H](CO)C(=O)N[C@@H](Cc4ccccc4)C(=O)N[C@@H](CCCNC(=N)N)C(=O)N[C@@H](CCCCN)C(=O)N2)NC(=O)[C@H](CSSC[C@@H](C(=O)N[C@@H](CCCCN)C(=O)N[C@@H](Cc2ccc(O)cc2)C(=O)N[C@H](C(=O)N[C@@H](Cc2ccccc2)C(N)=O)C(C)C)NC(=O)[C@H](Cc2c[nH]c4ccccc24)NC(=O)[C@H](CCCCN)NC(=O)[C@H](Cc2c[nH]cn2)NC(=O)[C@H]([C@@H](C)O)NC(=O)[C@H](CCCNC(=N)N)NC(=O)[C@H](CO)NC3=O)NC(=O)[C@H](CCCCN)NC(=O)[C@H](CC(=O)O)NC(=O)[C@H](CC(N)=O)NC(=O)[C@H](CC(=O)O)NC(=O)[C@@H]2CCCN2C1=O [[Ser5;Phe6]GpTx-1(1-34)] (H-DCLGSFRKCIPDNDKCCRPNLVCSRTHKWCKYVF-NH2; disulfide 2-17, 9-23, 16-30) | < 5.00 | 7.62 | 
CC[C@H](C)[C@@H]1NC(=O)[C@@H]2CSSC[C@@H]3NC(=O)[C@H](C(C)C)NC(=O)[C@H](CC(C)C)NC(=O)[C@H](CC(N)=O)NC(=O)[C@@H]4CCCN4C(=O)[C@H](CCCNC(=N)N)NC(=O)[C@H](CSSC[C@H](NC(=O)[C@@H](N)CC(=O)O)C(=O)N[C@@H](CC(C)C)C(=O)NCC(=O)N[C@@H](C(C)(C)C)C(=O)N[C@@H](CC(C)C)C(=O)N[C@@H](CCCNC(=N)N)C(=O)N[C@@H](CCCCN)C(=O)N2)NC(=O)[C@H](CSSC[C@@H](C(=O)N[C@@H](CCCCN)C(=O)N[C@@H](Cc2ccc(O)cc2)C(=O)N[C@H](C(=O)N[C@@H](Cc2ccccc2)C(N)=O)C(C)C)NC(=O)[C@H](Cc2c[nH]c4ccccc24)NC(=O)[C@H](CCCCN)NC(=O)[C@H](Cc2c[nH]cn2)NC(=O)[C@H]([C@@H](C)O)NC(=O)[C@H](CCCNC(=N)N)NC(=O)[C@H](CO)NC3=O)NC(=O)[C@H](CCCCN)NC(=O)[C@H](CC(=O)O)NC(=O)[C@H](CC(N)=O)NC(=O)[C@H](CC(=O)O)NC(=O)[C@@H]2CCCN2C1=O [[Tle5;Leu6]GpTx-1(1-34)] | < 5.00 | 7.77 | 
